Experimental data as given in US9567345B2, “Pharmaceutically active pyrazolo-triazine derivatives” (LEAD DISCOVERY CENTER GMBH, priority 2012, dated 2017).

Assays:
CDK9/Cyclin T1 = CDK9/Cyclin T1 (Homo sapiens, UniProt P50750); assay: CDK9 Enzymatic Activity Assay (Lance Kinase Activity Assay, FRET); format: biochemical; conditions: Table 5B, class symbols per IC50 [nM] ranges of b581; read-out: CDK9: Selectivity of CDK7 inhibition over CDK9 inhibition
Method: (§1) This protocol describes how the Lance Kinase Activity Assay was performed to determine IC50 values of compounds of general formula (I) against CDK/Cyclin complexes. The principle behind this enzymatic assay is based upon the phosphorylation of the Ulight-Peptide Substrat. It is detected by using a specific EU-labeled anti-phospho peptide antibody.
(§2) Binding of an inhibitor to the kinase prevents phosphorylation of the Ulight-MBP Substrat, resulting in a loss of FRET.
CDK9 Enzymatic Activity Assay
(§3) The compounds of general formula (I) exemplary summarized in Table 1 were diluted from a 10 mM DMSO stock solution 1:10 in a total volume of 15 μl DMSO. This compound predilution was then serial diluted 1:3 over 8 steps in DMSO and briefly spun down. Each compound solution was now diluted 1:20 in Enzymatic Buffer (HEPES: 50 mM, pH: 7.5; MgCl2: 10 mM; EGTA: 1 mM; DTT: 2 mM; Tween-20: 0.01%), mixed thoroughly and spun down.
(§4) For positive controls, 2 μl of DMSO working solution were mixed with 6 μl CDK9/cyclin T1/substrate working solution and 2 μl ATP working solution. Positive and negative controls were calculated from at least 8 different wells. The 384 well plates were mixed in a Teleshaker plate mixer (Beckman Coulter, Brea, Calif., USA) at 2000 rpm for 40 sec, and incubated for 1 h at room temperature before addition of 10 μl LANCE Detection Buffer (1×; EDTA: […]; Eu-Anti-P-MBP: 4 nM) per well. Plates were mixed in a Teleshaker plate mixer (Beckman Coulter, Brea, Calif., USA) at 2000 rpm for 40 sec, followed by incubation with Detection Buffer for 1 h, and reading. […] IC50 values were determined from the sigmoidal dose response curves with the software Quattro Workflow (Quattro GmbH, Munich, Germany).

CDK7/CycH/Mat1 = CDK7/CycH/Mat1 (Homo sapiens, UniProt P50613); assay: CDK7 Enzymatic Activity Assay (Lance Kinase Activity Assay, FRET); format: biochemical; conditions: CDK7/CycH/Mat1, 25 μM ATP final; class ranges; read-out: CDK7: IC50 [nM] for CDK7 inhibition
Method: as §1, §2
CDK7 Enzymatic Activity Assay
as §3
as §4, with “CDK7/CycH/Mat1/substrate” for “CDK9/cyclin T1/substrate”

Sequence of CDK7/CycH/Mat1 (P50613 whole entry): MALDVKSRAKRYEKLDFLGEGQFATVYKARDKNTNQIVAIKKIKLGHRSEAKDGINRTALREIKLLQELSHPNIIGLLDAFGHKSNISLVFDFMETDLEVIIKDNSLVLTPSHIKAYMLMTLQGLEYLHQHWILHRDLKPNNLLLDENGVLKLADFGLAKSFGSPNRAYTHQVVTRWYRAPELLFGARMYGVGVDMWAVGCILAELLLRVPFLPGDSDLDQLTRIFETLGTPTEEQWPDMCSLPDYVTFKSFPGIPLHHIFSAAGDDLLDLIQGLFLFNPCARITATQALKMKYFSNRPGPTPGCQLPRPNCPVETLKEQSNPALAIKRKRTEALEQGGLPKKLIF
Sequence of CDK9/Cyclin T1 (P50750 whole entry): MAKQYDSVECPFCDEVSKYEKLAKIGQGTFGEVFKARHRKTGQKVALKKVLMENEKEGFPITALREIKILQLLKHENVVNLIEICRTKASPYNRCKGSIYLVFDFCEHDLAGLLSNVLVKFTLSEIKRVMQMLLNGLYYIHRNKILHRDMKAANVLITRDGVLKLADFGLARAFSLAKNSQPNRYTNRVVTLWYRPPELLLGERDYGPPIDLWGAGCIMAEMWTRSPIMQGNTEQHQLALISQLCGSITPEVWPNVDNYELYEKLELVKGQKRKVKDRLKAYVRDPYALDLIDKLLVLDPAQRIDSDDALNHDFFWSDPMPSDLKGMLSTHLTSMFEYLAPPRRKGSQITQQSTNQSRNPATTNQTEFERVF
Sequence of CDK9/Cyclin T1 (O60563 whole entry partner): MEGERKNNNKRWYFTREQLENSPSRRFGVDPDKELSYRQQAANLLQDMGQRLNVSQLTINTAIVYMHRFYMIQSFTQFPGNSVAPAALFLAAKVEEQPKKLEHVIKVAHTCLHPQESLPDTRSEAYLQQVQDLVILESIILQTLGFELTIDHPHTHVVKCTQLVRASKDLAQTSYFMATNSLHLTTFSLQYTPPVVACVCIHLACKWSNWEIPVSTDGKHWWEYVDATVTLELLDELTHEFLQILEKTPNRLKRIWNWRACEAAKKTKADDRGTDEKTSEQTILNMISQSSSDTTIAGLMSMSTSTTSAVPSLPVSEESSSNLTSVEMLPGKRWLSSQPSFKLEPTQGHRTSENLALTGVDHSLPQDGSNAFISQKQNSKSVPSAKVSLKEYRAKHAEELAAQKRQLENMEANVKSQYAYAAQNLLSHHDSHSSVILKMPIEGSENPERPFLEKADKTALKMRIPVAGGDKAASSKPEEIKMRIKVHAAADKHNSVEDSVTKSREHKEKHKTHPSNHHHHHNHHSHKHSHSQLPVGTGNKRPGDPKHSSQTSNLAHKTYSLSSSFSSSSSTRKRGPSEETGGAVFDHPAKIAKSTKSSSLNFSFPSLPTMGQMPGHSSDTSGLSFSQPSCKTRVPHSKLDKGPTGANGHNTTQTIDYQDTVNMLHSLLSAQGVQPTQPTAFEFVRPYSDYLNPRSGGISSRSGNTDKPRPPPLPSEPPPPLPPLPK

SMILES | IC50 (CDK9/Cyclin T1) [nM] | IC50 (CDK7/CycH/Mat1) [nM]
Cc1nccn1-c1ccccc1CNc1nc(OC2CCN(C)CC2)nc2c(C(C)C)cnn12 [(VII-75), 8-isopropyl-N-(2-(2-methyl-1H-imidazol-1-yl)benzyl)-2-((1-methylpiperidin-4-yl)oxy)pyrazolo[1,5-a][1,3,5]triazin-4-amine] | > 2500 | < 5
CC(C)c1cnn2c(NCc3ccccc3-n3cccn3)nc(N3CCCC4(CCCNC4)C3)nc12 (centres unmarked) [(VIII-14), N-(2-(1H-pyrazol-1-yl)benzyl)-8-isopropyl-2-(2,8-diazaspiro[5.5]undecan-2-yl)pyrazolo[1,5-a][1,3,5]triazin-4-amine] | > 2500 | 10 to 25
CC(C)c1cnn2c(N[C@@H](C)c3ccccc3Cl)nc(O[C@@H]3CCCNC3)nc12 [(VII-28), N-((S)-1-(2-chlorophenyl)ethyl)-8-isopropyl-2-((R)-piperidin-3-yloxy)pyrazolo[1,5-a][1,3,5]triazin-4-amine] | > 2500 | < 5
CC(C)c1cnn2c(NCc3ccccc3-n3cccn3)nc(N3CCC4(CCNC4)CC3)nc12 [(VIII-09), N-(2-(1H-pyrazol-1-yl)benzyl)-8-isopropyl-2-(2,8-diazaspiro[4.5]decan-8-yl)pyrazolo[1,5-a][1,3,5]triazin-4-amine] | > 2500 | 5 to 10
CC(C)c1cnn2c(NCc3ccccc3-c3cccnc3)nc(O[C@@H]3CCCNC3)nc12 [(VII-46), (R)-8-isopropyl-2-(piperidin-3-yloxy)-N-(2-(pyridin-3-yl)benzyl)pyrazolo[1,5-a][1,3,5]triazin-4-amine] | > 2500 | < 5
CC(C)c1cnn2c(NCc3ccccc3S(=O)(=O)N(C)C)nc(N3CCC4(CCCN4)CC3)nc12 [(VIII-35), 2-(((8-isopropyl-2-(1,8-diazaspiro[4.5]decan-8-yl)pyrazolo[1,5-a][1,3,5]triazin-4-yl)amino)methyl)-N,N-dimethylbenzenesulfonamide] | > 2500 | < 5
CC(C)c1cnn2c(NCc3ccccc3-n3cccn3)nc(N3CCCC4(CCCCN4)C3)nc12 (centres unmarked) [(VIII-15), N-(2-(1H-pyrazol-1-yl)benzyl)-8-isopropyl-2-(1,8-diazaspiro[5.5]undecan-8-yl)pyrazolo[1,5-a][1,3,5]triazin-4-amine] | > 2500 | 10 to 25
CC(C)c1cnn2c(NCc3ccccc3-n3cccn3)nc(N3CCCC34CCNC4)nc12 (centres unmarked) [(VIII-13), N-(2-(1H-pyrazol-1-yl)benzyl)-8-isopropyl-2-(1,7-diazaspiro[4.4]nonan-1-yl)pyrazolo[1,5-a][1,3,5]triazin-4-amine] | > 2500 | 5 to 10
COc1ccccc1[C@H](C)Nc1nc(O[C@@H]2CCCNC2)nc2c(C(C)C)cnn12 [(VII-10), 8-isopropyl-N-((S)-1-(2-methoxyphenyl)ethyl)-2-((R)-piperidin-3-yloxy)pyrazolo[1,5-a][1,3,5]triazin-4-amine] | 500 to 2500 | < 5
CC(C)c1cnn2c(NCc3ccccc3-c3nnnn3C)nc(N3CCC4(CCCN4)CC3)nc12 [(VIII-18), 8-isopropyl-N-(2-(1-methyl-1H-tetrazol-5-yl)benzyl)-2-(1,8-diazaspiro[4.5]decan-8-yl)pyrazolo[1,5-a][1,3,5]triazin-4-amine] | > 2500 | < 5
CC(C)Oc1ccccc1CNc1nc(OC2CCNCC2)nc2c(C(C)C)cnn12 [(VII-17), N-(2-isopropoxybenzyl)-8-isopropyl-2-(piperidin-4-yloxy)pyrazolo[1,5-a][1,3,5]triazin-4-amine] | > 2500 | < 5
CC(C)c1cnn2c(N[C@@H](C)c3cccc4ccccc34)nc(OC3CCN(C)CC3)nc12 [(VII-69), (S)-8-isopropyl-2-((1-methylpiperidin-4-yl)oxy)-N-(1-(naphthalen-1-yl)ethyl)pyrazolo[1,5-a][1,3,5]triazin-4-amine] | > 2500 | < 5
CC(C)NS(=O)(=O)c1ccccc1CNc1nc(O[C@@H]2CCCNC2)nc2c(C(C)C)cnn12 [(VII-105), (R)-N-isopropyl-2-(((8-isopropyl-2-(piperidin-3-yloxy)pyrazolo[1,5-a][1,3,5]triazin-4-yl)amino)methyl)benzenesulfonamide] | > 2500 | > 25
CC(C)c1cnn2c(NCc3ccccc3-n3cccn3)nc(N3CCC34CCNCC4)nc12 [(VIII-34), N-(2-(1H-pyrazol-1-yl)benzyl)-8-isopropyl-2-(1,7-diazaspiro[3.5]nonan-1-yl)pyrazolo[1,5-a][1,3,5]triazin-4-amine] | > 2500 | < 5
CC(C)c1cnn2c(NCc3ccccc3C#N)nc(OC3CCN(C)CC3)nc12 [(VII-55), 2-(((8-isopropyl-2-((1-methylpiperidin-4-yl)oxy)pyrazolo[1,5-a][1,3,5]triazin-4-yl)amino)methyl)benzonitrile] | > 2500 | 10 to 25
Cc1nccn1-c1ccccc1CNc1nc(OC2CCNCC2)nc2c(C(C)C)cnn12 [(VII-24), 8-isopropyl-N-(2-(2-methyl-1H-imidazol-1-yl)benzyl)-2-(piperidin-4-yloxy)pyrazolo[1,5-a][1,3,5]triazin-4-amine] | > 2500 | < 5
Cc1cccc(Cl)c1CNc1nc(OC2CCN(C)CC2)nc2c(C(C)C)cnn12 [(VII-62), N-(2-chloro-6-methylbenzyl)-8-isopropyl-2-((1-methylpiperidin-4-yl)oxy)pyrazolo[1,5-a][1,3,5]triazin-4-amine] | > 2500 | 10 to 25
CC(C)c1cnn2c(NCc3ccccc3-n3cccn3)nc(N3CCC4(CCCNC4)C3)nc12 (centres unmarked) [(VIII-27), N-(2-(1H-pyrazol-1-yl)benzyl)-8-isopropyl-2-(2,7-diazaspiro[4.5]decan-2-yl)pyrazolo[1,5-a][1,3,5]triazin-4-amine] | > 2500 | 5 to 10
CC(C)c1cnn2c(NCc3ccccc3-n3cccn3)nc(N3CCC34CCCNC4)nc12 (centres unmarked) [(VIII-04), N-(2-(1H-pyrazol-1-yl)benzyl)-8-isopropyl-2-(1,6-diazaspiro[3.5]nonan-1-yl)pyrazolo[1,5-a][1,3,5]triazin-4-amine] | > 2500 | 10 to 25
COc1ccccc1[C@H](C)Nc1nc(OC2CCNCC2)nc2c(C(C)C)cnn12 [(VII-15), (S)-8-isopropyl-N-(1-(2-methoxyphenyl)ethyl)-2-(piperidin-4-yloxy)pyrazolo[1,5-a][1,3,5]triazin-4-amine] | > 2500 | < 5
CC(C)c1cnn2c(NCc3ccccc3-n3cccn3)nc(N3CCCC34CCNCC4)nc12 [(VIII-22), N-(2-(1H-pyrazol-1-yl)benzyl)-8-isopropyl-2-(1,8-diazaspiro[4.5]decan-1-yl)pyrazolo[1,5-a][1,3,5]triazin-4-amine] | > 2500 | < 5
CC(C)c1cnn2c(NCc3ccccc3-n3cccn3)nc(N3CC4(CCCNC4)C3)nc12 [(VIII-05), N-(2-(1H-pyrazol-1-yl)benzyl)-8-isopropyl-2-(2,6-diazaspiro[3.5]nonan-2-yl)pyrazolo[1,5-a][1,3,5]triazin-4-amine] | > 2500 | < 5
CC(C)c1cnn2c(NCc3ccccc3-n3cccn3)nc(N3CCC34CCNC4)nc12 (centres unmarked) [(VIII-28), N-(2-(1H-pyrazol-1-yl)benzyl)-8-isopropyl-2-(1,6-diazaspiro[3.4]octan-1-yl)pyrazolo[1,5-a][1,3,5]triazin-4-amine] | > 2500 | < 5
CC(C)c1cnn2c(NCc3ccccc3-n3cccn3)nc(N3CC4(CCNCC4)C3)nc12 [(VIII-12), N-(2-(1H-pyrazol-1-yl)benzyl)-8-isopropyl-2-(2,7-diazaspiro[3.5]nonan-2-yl)pyrazolo[1,5-a][1,3,5]triazin-4-amine] | > 2500 | < 5
COc1ccccc1[C@H](C)Nc1nc(N[C@@H]2CCCNC2)nc2c(C(C)C)cnn12 [(VIII-31), 8-isopropyl-N4-((S)-1-(2-methoxyphenyl)ethyl)-N2-((R)-piperidin-3-yl)pyrazolo[1,5-a][1,3,5]triazine-2,4-diamine] | > 2500 | 5 to 10
